Test results: patent US20160074399A1, “Salts of an Epidermal Growth Factor Receptor Kinase Inhibitor” (Clovis Oncology, Inc., priority 2013, published 2016)

Experiment: Competitive slurry experiments Form I vs. Form III
Assay type: physicochemical
Details: ca. 3 days
Method: Competitive slurry experiments were set up in acetone, isopropanol, acetone:water (80:20) and isopropyl acetate at both room temperature (ca. 22° C.) and 60° C. Approximately 200 mg of each of Forms I and III material was placed into a vial and 4 mL of the appropriate solvent system was added to produce a slurry. For each experiment, the slurries were allowed to stir for ca. 3 days. Analysis by XRPD was then conducted to determine the form of the resultant solid. Competitive slurry experiments of Form I vs. Form III were carried out in 4 solvent systems and resulting solids were analysed by XRPD analysis (FIG. 82 and FIG. 83).

Result (form of resultant solid) (Acetone, 60° C.): Form I | Result (form of resultant solid) (Acetone, RT (ca. 22° C.)): Form I | Result (form of resultant solid) (Acetone:water (80:20), 60° C.): Form VIII | Result (form of resultant solid) (Acetone:water (80:20), RT (ca. 22° C.)): Form VIII | Result (form of resultant solid) (Isopropanol, 60° C.): Form I | Result (form of resultant solid) (Isopropanol, RT (ca. 22° C.)): Form I | Result (form of resultant solid) (Isopropyl acetate, 60° C.): Form I | Result (form of resultant solid) (Isopropyl acetate, RT (ca. 22° C.)): Form I
SMILES: Br.C=CC(=O)Nc1cccc(Nc2nc(Nc3ccc(N4CCN(C(C)=O)CC4)cc3OC)ncc2C(F)(F)F)c1 [I and III]
